Values quoted from earlier work in patent publication US20080300217A1, “Combination Therapy with Fumaric Acid Esters for the Treatment of Autoimmune and/or Inflammatory Disorders” (ADITECH PHARMA AB, priority 2005, published 2008).

Settings: pentoxifylline added to the standard Fumaderm treatment; psoriasis patients

CC(=O)CCCCn1c(=O)c2c(ncn2C)n(C)c1=O [pentoxifylline]
flush symptoms in patients: reduced the flush symptoms in patients
